Test systems include HCT-116 colon; RXF 393 renal; SNB-75 CNS; NCI-H522 lung; LXFL 529 NSCLC; UACC-257 melanoma; HCT-15 colon; KM20L2 colon; MDA-MB-435; MDA-MB-231 breast.
Experiment in all cases: DTP human tumour cell line panel, 48 h

Structures are written as SMILES. “And” between values parts separate entries of the source, which are not always exact repeats. Identical values can stand only once.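 Cultured in 96-well plates, cells were exposed to test compound for 48 hours across five concentrations. Here, GI50 denotes the concentration required for 50% inhibition of growth. TGI marks complete inhibition of growth.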

With `O=S(=O)(c1ccccc1)C1(C2(S(=O)(=O)c3ccccc3)CCN=N2)CCN=N1` (stereo not drawn), the TGI with HCT-116 colon, in the test with RXF 393 renal, in the test on SNB-75 CNS, in the test with NCI-H522 lung, with LXFL 529 NSCLC and in the test on UACC-257 melanoma was above 100 µM each time. Moreover, in the test on HCT-15 colon, the TGI – broadly, the concentration giving total growth inhibition – is above 100 µM.

In the case of `O=C1CC2=CCCC2O1` (stereo not drawn), the concentration for total growth inhibition (TGI) in the test with HCT-116 colon, with RXF 393 renal, in the test on SNB-75 CNS, in the test on NCI-H522 lung, with LXFL 529 NSCLC and in the test on UACC-257 melanoma was above 100 µM in each case. For the same molecule, in the test on HCT-15 colon, the total growth inhibition concentration (TGI) was above 100 µM.

With `O=S(=O)([O-])c1ccc(C=Nc2ccccc2)c([O-])c1.O=S(=O)([O-])c1ccc(C=Nc2ccccc2)c([O-])c1.[Co+2]`, the GI50 (in general, the concentration that inhibits growth by half) in the test with RXF 393 renal is above 100 µM; in the test with SNB-75 CNS it was above 100 µM; with NCI-H522 lung, above 100 µM; with KM20L2 colon it was 1.76 µM; in the test on UACC-257 melanoma it was above 100 µM; in the test on HCT-15 colon it was 45.5 µM. Moreover, the TGI in the test with RXF 393 renal, in the test on SNB-75 CNS, with NCI-H522 lung, with KM20L2 colon, in the test with UACC-257 melanoma and with HCT-15 colon was above 100 µM throughout.

Turning to `O=C1c2ccccc2C(=O)N1CCN(CCN1C(=O)c2ccccc2C1=O)Cc1ccccc1`, the TGI in the test with HCT-116 colon, in the test with RXF 393 renal, in the test on NCI-H522 lung, with KM20L2 colon, in the test on LXFL 529 NSCLC and with UACC-257 melanoma was above 100 µM throughout. The molecule further showed a TGI in the test with HCT-15 colon above 100 µM.

Regarding `COc1cc(Br)c(C=Nc2cccc3ccc(OS(=O)(=O)c4ccc([N+](=O)[O-])cc4)cc23)cc1OC`, the TGI in the test on HCT-116 colon, with RXF 393 renal, in the test with NCI-H522 lung, with LXFL 529 NSCLC, with UACC-257 melanoma and with HCT-15 colon was above 100 µM each time.

For `CCN(CC)CCNc1ccc2nc(C)n3c4ccc(OC)cc4c(=O)c1c23`, the TGI is 27.1 µM in the test with MDA-MB-435; 6 µM in the test on HCT-116 colon; 10.5 µM in the test with RXF 393 renal; 19 µM in the test with SNB-75 CNS; 2.74 µM in the test with NCI-H522 lung; 17.5 µM with LXFL 529 NSCLC. Besides, the concentration for total growth inhibition (TGI) turned out to be 22.3 µM with UACC-257 melanoma, 10.3 µM in the test on HCT-15 colon and 16.9 µM in the test with MDA-MB-231 breast.

`CN(C)Cc1nsc(N(C)C)n1`: the total growth inhibition concentration (TGI) in the test on MDA-MB-435, in the test with HCT-116 colon, with RXF 393 renal, in the test with SNB-75 CNS, in the test on NCI-H522 lung and in the test with UACC-257 melanoma was above 100 µM in each case. The concentration for total growth inhibition (TGI) in the test on HCT-15 colon and with MDA-MB-231 breast was above 100 µM throughout.

Take `CC(C)OC(=O)NNc1c(Cl)cc(Cl)cc1Cl`: the total growth inhibition concentration (TGI) is above 100 µM in the test on MDA-MB-435; above 100 µM in the test with HCT-116 colon; 69.5 µM with RXF 393 renal; above 100 µM in the test with SNB-75 CNS; 95.4 µM in the test with NCI-H522 lung; above 100 µM in the test on UACC-257 melanoma. For the same molecule, the concentration for total growth inhibition (TGI) in the test on HCT-15 colon and with MDA-MB-231 breast was above 100 µM each time.

Take `CCn1cnc(C[C@H](NC(=O)[C@@H](NC(=O)Nc2cc(C(F)(F)F)cc(C(F)(F)F)c2)C(C)(C)C)C(=O)OC)c1`: the GI50 in the test on MDA-MB-435, in the test on HCT-116 colon, in the test with RXF 393 renal, in the test with SNB-75 CNS, in the test with NCI-H522 lung and in the test with UACC-257 melanoma was above 10 µM in each case. For the same molecule, the GI50 in the test on HCT-15 colon and in the test on MDA-MB-231 breast was above 10 µM each time. The TGI with MDA-MB-435, in the test on HCT-116 colon, in the test with RXF 393 renal, in the test with SNB-75 CNS, in the test with NCI-H522 lung and with UACC-257 melanoma was above 10 µM each time. The concentration for total growth inhibition (TGI) in the test with HCT-15 colon and in the test with MDA-MB-231 breast was above 10 µM each time.

For the molecule `COc1cccc(/C=C2\COc3ccc(O)c(O)c3C2=O)c1OC`, the GI50 is 2.3 µM with MDA-MB-435; 1.9 µM in the test with HCT-116 colon; 1.76 µM in the test with RXF 393 renal; 3.61 µM in the test with SNB-75 CNS; 0.19 µM in the test on NCI-H522 lung; 2.37 µM in the test on UACC-257 melanoma. The results for the GI50 in the test on HCT-15 colon and with MDA-MB-231 breast were 1.6 µM and 3.32 µM, respectively. Also, the TGI in the test with MDA-MB-435 stood at 7 µM; in the test with HCT-116 colon, 4.89 µM; in the test with RXF 393 renal, 3.42 µM; with SNB-75 CNS, 20.9 µM; in the test on NCI-H522 lung it was 0.473 µM; in the test with UACC-257 melanoma, 7.18 µM. The TGI came out at 10.5 µM in the test with HCT-15 colon and 13.4 µM with MDA-MB-231 breast.

Turning to `O=C(Nc1ccc(Br)cc1)c1cc(Br)ccc1O`, the GI50 with MDA-MB-435 is 0.43 µM and 1.38 µM; in the test on HCT-116 colon, 0.354 µM and 1.45 µM; in the test with RXF 393 renal it was 0.612 µM; in the test on SNB-75 CNS, 0.348 µM and 1.34 µM; in the test with NCI-H522 lung it was 0.263 µM and 0.854 µM; in the test with UACC-257 melanoma, 0.455 µM and 2.73 µM. In addition, the GI50 with HCT-15 colon was 0.483 µM and 0.779 µM; with MDA-MB-231 breast, 0.622 µM and 1.43 µM. In addition, the TGI was 3.23 µM and 5.66 µM in the test with MDA-MB-435; 1.56 µM and 3.56 µM in the test with HCT-116 colon; 3.89 µM in the test on RXF 393 renal; 3.07 µM and 14.3 µM in the test with SNB-75 CNS; 4.81 µM and 22.2 µM in the test on NCI-H522 lung; 3.58 µM and 8.43 µM with UACC-257 melanoma. The TGI is 4.01 µM and 7.35 µM with HCT-15 colon; 3.22 µM and 7.06 µM in the test with MDA-MB-231 breast.

`Nc1ncnc2occ(-c3ccc(NC(=O)Nc4cccc(C(F)(F)F)c4)cc3)c12`: the GI50 with MDA-MB-435 is 2.22 µM; in the test on HCT-116 colon it was 2.98 µM; in the test with RXF 393 renal it was 1.71 µM; in the test on SNB-75 CNS it was 3.77 µM; in the test with NCI-H522 lung, 4.18 µM; with UACC-257 melanoma it was 4.24 µM. Moreover, the values for the GI50 in the test on HCT-15 colon and in the test with MDA-MB-231 breast were 4.24 µM and 5.8 µM, respectively. Moreover, the TGI with MDA-MB-435 turned out to be 6.48 µM; in the test with HCT-116 colon, 16 µM; with RXF 393 renal it was 5.39 µM; in the test with SNB-75 CNS, 9.69 µM; in the test with NCI-H522 lung it was 8.92 µM; in the test with UACC-257 melanoma, 8.86 µM. For the same molecule, the results for the concentration for total growth inhibition (TGI) in the test with HCT-15 colon and in the test with MDA-MB-231 breast were 18.2 µM and 16.4 µM, respectively.

Turning to `O=C1c2c[n+](Cc3ccccc3)ccc2-c2nc3ccccc3c3ccnc1c23`, the GI50 in the test with MDA-MB-435 was 0.434 µM; in the test on HCT-116 colon, 0.422 µM; in the test on RXF 393 renal, 0.534 µM; in the test with SNB-75 CNS it was 0.804 µM; in the test with NCI-H522 lung, 0.518 µM; in the test on UACC-257 melanoma it was 0.865 µM. In addition, the GI50 in the test with HCT-15 colon is 0.87 µM; with MDA-MB-231 breast, 0.711 µM. The concentration for total growth inhibition (TGI) with MDA-MB-435 is 0.972 µM; in the test on HCT-116 colon it was 1.86 µM; in the test on RXF 393 renal, 1.56 µM; in the test with SNB-75 CNS, 3.71 µM; in the test with NCI-H522 lung, 1.65 µM; in the test with UACC-257 melanoma, 2.33 µM. For the same molecule, the values for the TGI in the test with HCT-15 colon and with MDA-MB-231 breast were 6.18 µM and 3.21 µM, respectively.

Take `CC(=O)OC1C(C)OC(Oc2c(-c3ccc(O)cc3)oc3cc(O)cc(O)c3c2=O)C(O)C1OC(C)=O` (stereo not drawn): the GI50 in the test on MDA-MB-435 was 27.2 µM; with HCT-116 colon it was 35.1 µM; in the test on RXF 393 renal, 24.2 µM; in the test on SNB-75 CNS it was 27.5 µM; in the test with NCI-H522 lung, 18.5 µM; with UACC-257 melanoma, 27.6 µM. Also, the GI50 in the test on HCT-15 colon is 52.3 µM; with MDA-MB-231 breast it was 21.1 µM. In addition, the TGI in the test on MDA-MB-435 is above 75.4 µM; with HCT-116 colon, above 100 µM; in the test with RXF 393 renal, 71.8 µM; in the test on SNB-75 CNS, above 93.9 µM; with NCI-H522 lung it was 47.4 µM; in the test on UACC-257 melanoma, above 79.9 µM. The concentration for total growth inhibition (TGI) with HCT-15 colon is above 100 µM; in the test on MDA-MB-231 breast it was 63.7 µM.

As to `COc1cccc(C2=C(c3cn(C)c4c(C)cccc34)C(=O)NC2=O)c1`, the GI50 was 18.2 µM in the test with MDA-MB-435; above 18 µM in the test on HCT-116 colon; 8.58 µM in the test on RXF 393 renal; 0.909 µM in the test on SNB-75 CNS; above 18.2 µM in the test with NCI-H522 lung; above 25 µM in the test with UACC-257 melanoma. For the same molecule, the GI50 in the test on HCT-15 colon was 14.2 µM; in the test with MDA-MB-231 breast, 24.5 µM. In addition, the TGI in the test with MDA-MB-435, in the test on HCT-116 colon, in the test with RXF 393 renal, in the test with SNB-75 CNS, with NCI-H522 lung and in the test with UACC-257 melanoma was above 25 µM throughout. Besides, the total growth inhibition concentration (TGI) with HCT-15 colon and with MDA-MB-231 breast was above 25 µM throughout.

`COc1cc(/C=C/C(=O)c2cccc(-n3cc(-c4ccccc4)[nH]c3=O)c2)ccc1O`: the GI50 was 2.58 µM in the test on MDA-MB-435; 1.8 µM in the test with HCT-116 colon; 1.78 µM in the test with RXF 393 renal; 3.21 µM in the test with SNB-75 CNS; 1.78 µM with NCI-H522 lung; 4.88 µM in the test with UACC-257 melanoma. The GI50 in the test with HCT-15 colon is 2.9 µM; with MDA-MB-231 breast it was 3.36 µM. For the same molecule, the TGI is 8.91 µM with MDA-MB-435; 4.11 µM with HCT-116 colon; 4.12 µM with RXF 393 renal; 12.3 µM in the test on SNB-75 CNS; 6.12 µM with NCI-H522 lung; 17.1 µM in the test on UACC-257 melanoma. In addition, the TGI in the test with HCT-15 colon is 14.3 µM; in the test on MDA-MB-231 breast, 15.2 µM.

As for `Nc1ncnc2c1ncn2C1OC(F)(COS(N)(=O)=O)C(O)C1O` (stereo not drawn), the GI50 in the test with MDA-MB-435 is above 100 µM; with HCT-116 colon, above 100 µM; in the test with RXF 393 renal it was 97.9 µM; with SNB-75 CNS it was above 100 µM; in the test with NCI-H522 lung it was above 100 µM; in the test on UACC-257 melanoma, above 100 µM. The GI50 in the test on HCT-15 colon and with MDA-MB-231 breast was above 100 µM each time. Further, the TGI with MDA-MB-435, in the test with HCT-116 colon, in the test on RXF 393 renal, in the test with SNB-75 CNS, with NCI-H522 lung and with UACC-257 melanoma was above 100 µM throughout. The total growth inhibition concentration (TGI) in the test with HCT-15 colon and in the test on MDA-MB-231 breast was above 100 µM in each case.
